We go through 39 compounds from patent US9006433B2, “Substituted pyrimidines” (Merck Sharp & Dohme Corp., priority 2010, dated 2015).

In the experiment the target is T1, PHD2 (Homo sapiens, UniProt Q9GZT9).
T1 construct: FLAG-tagged full length PHD2 expressed in and purified from baculovirus-infected Sf9 cells; FLAG; made in house; host or cells: baculovirus-infected Sf9 cells
Briefly: PHD2 inhibition assay (time resolved fluorescence, HIF-1α peptide hydroxylation / VHL complex detection). The experiment is classed as biochemical. The note with it: FLAG-tagged full length PHD2; 0.2 μM 2-oxoglutarate, 0.5 μM HIF-1α peptide. The protocol:
To each well of a 96-well plate was added 1 μL of test compound in DMSO and 20 μl of assay buffer (50 mM Iris pH 7.4/0.01% Tween-20/0.1 mg/ml bovine serum albumin/10 μM ferrous sulfate/1 mM sodium ascorbate/20 μg/ml catalase) containing 0.15 μg/ml FLAG-tagged full length PHD2 expressed in and purified from baculovirus-infected Sf9 cells. After a 30 min preincubation at room temperature, the enzymatic reactions were initiated by the addition of […] of substrates (final concentrations of 0.2 μM 2-oxoglutarate and 0.5 μM HIF-1α peptide biotinyl-DLDLEMLAPYIPMDDDFQL (SEQ ID NO:1)). After 2 hr at room temperature, the reactions were terminated and signals were developed by the addition of a 25 μL quench/detection mix to a final concentration of 1 mM ortho-phenanthroline, 0.1 mM EDTA, 0.5 nM anti-(His)6 LANCE reagent (Perkin-Elmer Life Sciences), 100 nM AF647-labeled streptavidin (Invitrogen), and 2 μg/ml (His)-6-VHL complex (S. Tan(2001) Protein Expr. Purif. 21, 224-234). The ratio of time resolved fluorescence signals at 665 and 620 nm was determined, and percent inhibition was calculated relative to an uninhibited control sample run in parallel.

T1 sequence (Q9GZT9 whole entry, species assumed): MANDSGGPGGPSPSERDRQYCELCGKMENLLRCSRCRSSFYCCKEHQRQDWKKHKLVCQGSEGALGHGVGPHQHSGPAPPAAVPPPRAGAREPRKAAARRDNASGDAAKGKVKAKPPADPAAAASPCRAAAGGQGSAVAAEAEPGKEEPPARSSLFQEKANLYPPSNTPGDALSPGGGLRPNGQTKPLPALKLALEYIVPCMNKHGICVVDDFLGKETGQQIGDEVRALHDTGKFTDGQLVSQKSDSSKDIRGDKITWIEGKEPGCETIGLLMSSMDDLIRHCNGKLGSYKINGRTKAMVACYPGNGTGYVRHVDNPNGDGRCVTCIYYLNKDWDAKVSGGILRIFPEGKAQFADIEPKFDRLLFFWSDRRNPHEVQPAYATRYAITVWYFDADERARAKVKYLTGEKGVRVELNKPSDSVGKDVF

In turn, `O=C(Nc1cnc(-n2cccn2)nc1O)NC1CCCC1` [Compound 5-5, 1-cyclopentyl-3-(4-hydroxy-2-(1H-pyrazol-1-yl)pyrimidin-5-yl)urea] gave an IC50 of 100 to 10000 nM.

`O=C(Nc1cnc(-n2cccn2)nc1O)c1cccc(Oc2ccccc2)c1` [Compound 3-21, N-(4-hydroxy-2-(1H-pyrazol-1-yl)pyrimidin-5-yl)-3-phenoxybenzamide] displayed an IC50 of 0.5 to 20 nM.

`O=C(Cc1ccc(C(F)(F)F)cc1)Nc1cnc(-n2cccn2)nc1O` [Compound 3-29, 2-(4-(trifluoromethyl)phenyl)-N-(4-hydroxy-2-(1H-pyrazol-1-yl)pyrimidin-5-yl)acetamide] returned an IC50 of 0.5 to 20 nM.

`N#Cc1cccc(CC(=O)Nc2cnc(-n3cccn3)nc2O)c1` [Compound 3-26, 2-(3-cyanophenyl)-N-(4-hydroxy-2-(1H-pyrazol-1-yl)pyrimidin-5-yl)acetamide] gave an IC50 of 0.5 to 20 nM.

The compound `O=C(Cc1ccc(-c2ccccc2)cc1)Nc1cnc(-n2cccn2)nc1O` [Compound 3-42, 2-(biphenyl-4-yl)-N-(4-hydroxy-2-(1H-pyrazol-1-yl)pyrimidin-5-yl)acetamide] gave a concentration for half-maximal inhibition (IC50) of 0.5 to 20 nM.

For the compound `O=C(Nc1cnc(-n2cccn2)nc1O)C1(c2ccccc2)CC1` [Compound 3-38, N-(4-hydroxy-2-(1H-pyrazol-1-yl)pyrimidin-5-yl)-1-phenylcyclopropanecarboxamide], the IC50 lay in the range of 20 to 100 nM.

The compound `O=C(Nc1cnc(-n2cccn2)nc1O)c1ccccc1C(F)(F)F` [Compound 3-10, 2-(trifluoromethyl)-N-(4-hydroxy-2-(1H-pyrazol-1-yl)pyrimidin-5-yl)benzamide] came in with a 50% inhibitory concentration (IC50) of 0.5 to 20 nM.

For `N#Cc1ccc(C(=O)Nc2cnc(-n3cccn3)nc2O)cc1` [Compound 3-9, 4-cyano-N-(4-hydroxy-2-(1H-pyrazol-1-yl)pyrimidin-5-yl)benzamide], the IC50 lay in the range of 20 to 100 nM.

For `O=C(Nc1cnc(-n2cccn2)nc1O)OCCc1ccccc1` [Compound 5-16, phenethyl 4-hydroxy-2-(1H-pyrazol-1-yl)pyrimidin-5-ylcarbamate], the IC50 was 20 to 100 nM.

As for `O=C(Nc1cnc(-n2cccn2)nc1O)c1ccc(C(F)(F)F)cc1` [Compound 3-5, 4-(trifluoromethyl)-N-(4-hydroxy-2-(1H-pyrazol-1-yl)pyrimidin-5-yl)benzamide], the IC50 was 20 to 100 nM.

In turn, `O=C(Cc1ccccc1C(F)(F)F)Nc1cnc(-n2cccn2)nc1O` [Compound 3-27, 2-(2-(trifluoromethyl)phenyl)-N-(4-hydroxy-2-(1H-pyrazol-1-yl)pyrimidin-5-yl)acetamide] displayed an IC50 of 0.5 to 20 nM.

`O=C(Cc1cccc(Cl)c1)Nc1cnc(-n2cccn2)nc1O` [Compound 3-24, 2-(3-chlorophenyl)-N-(4-hydroxy-2-(1H-pyrazol-1-yl)pyrimidin-5-yl)acetamide] showed an IC50 of 0.5 to 20 nM.

Compound `O=C(Nc1cnc(-n2cccn2)nc1O)C1CCCc2ccccc21` (stereo not drawn) [Compound 3-52, 1,2,3,4-tetrahydro-N-(4-hydroxy-2-(1H-pyrazol-1-yl)pyrimidin-5-yl)naphthalene-1-carboxamide] displayed an IC50 of 0.5 to 20 nM.

In the case of `O=C(Cc1ccc2ccccc2c1)Nc1cnc(-n2cccn2)nc1O` [Compound 3-6, N-(4-hydroxy-2-(1H-pyrazol-1-yl)pyrimidin-5-yl)-2-(naphthalen-3-yl)acetamide], the IC50 fell in the range of 0.5 to 20 nM.

Regarding `O=C(Cc1ccncc1)Nc1cnc(-n2cccn2)nc1O` [Compound 3-41, N-(4-hydroxy-2-(1H-pyrazol-1-yl)pyrimidin-5-yl)-2-(pyridin-4-yl)acetamide], the IC50 fell in the range of 20 to 100 nM.

As for `O=C(Nc1cnc(-n2cccn2)nc1O)C(c1ccccc1)c1ccccc1` [Compound 2-1, N-(4-hydroxy-2-(1H-pyrazol-1-yl)pyrimidin-5-yl)-2,2-diphenylacetamide], the IC50 lay in the range of 0.5 to 20 nM.

For the compound `COc1ccc(C(=O)Nc2cnc(-n3cccn3)nc2O)cc1` [Compound 3-13, N-(4-hydroxy-2-(1H-pyrazol-1-yl)pyrimidin-5-yl)-4-methoxybenzamide], the IC50 was in the range of 20 to 100 nM.

The compound `O=S(=O)(Nc1cnc(-n2cccn2)nc1O)c1cccc(Cl)c1` [Compound 4-3, 3-chloro-N-[4-hydroxy-2-(1H-pyrazol-1-yl)pyrimidin-5-yl]benzenesulfonamide] displayed a half-inhibitory concentration (IC50) of 100 to 10000 nM.

`COc1ccc(OC(=O)Nc2cnc(-n3cccn3)nc2O)cc1` [Compound 5-14, 4-methoxyphenyl 4-hydroxy-2-(1H-pyrazol-1-yl)pyrimidin-5-ylcarbamate] displayed an IC50 of 20 to 100 nM.

For the compound `O=S(=O)(Cc1ccc(Cl)cc1)Nc1cnc(-n2cccn2)nc1O` [Compound 4-2, 1-(4-chlorophenyl)-N-[4-hydroxy-2-(1H-pyrazol-1-yl)pyrimidin-5-yl]methanesulfonamide], the IC50 was 20 to 100 nM.

Consider `CC(C)(C)CCOC(=O)Nc1cnc(-n2cccn2)nc1O` [Compound 5-15, 3,3-dimethylbutyl 4-hydroxy-2-(1H-pyrazol-1-yl)pyrimidin-5-ylcarbamate], for which the IC50 is 20 to 100 nM.

As for `CCCCOC(=O)Nc1cnc(-n2cccn2)nc1O` [Compound 5-13, butyl 4-hydroxy-2-(1H-pyrazol-1-yl)pyrimidin-5-ylcarbamate], the IC50 lay within 100 to 10000 nM.

Compound `O=S(=O)(Cc1ccc(C(F)(F)F)cc1)Nc1cnc(-n2cccn2)nc1O` [Compound 4-4, N-[4-hydroxy-2-(1H-pyrazol-1-yl)pyrimidin-5-yl]-1-[4-(trifluoromethyl)phenyl]methanesulfonamide] gave a half-inhibitory concentration (IC50) of 100 to 10000 nM.

Take `CC(C)(C)OC(=O)Nc1cnc(-n2cccn2)nc1O` [Compound 5-12, tert-butyl 4-hydroxy-2-(1H-pyrazol-1-yl)pyrimidin-5-yl carbamate]: the IC50 was in the range of 100 to 10000 nM.

`COc1ccccc1C(=O)Nc1cnc(-n2cccn2)nc1O` [Compound 3-11, N-(4-hydroxy-2-(1H-pyrazol-1-yl)pyrimidin-5-yl)-2-methoxybenzamide] gave an IC50 of 20 to 100 nM.

`O=C(Nc1ccccc1)Nc1cnc(-n2cccn2)nc1O` [Compound 5-1, 1-(4-hydroxy-2-(1H-pyrazol-1-yl)pyrimidin-5-yl)-3-phenylurea]: the IC50 lay within 100 to 10000 nM.

On to `CS(=O)(=O)c1cccc(C(=O)Nc2cnc(-n3cccn3)nc2O)c1` [Compound 3-15, N-(4-hydroxy-2-(1H-pyrazol-1-yl)pyrimidin-5-yl)-3-(methylsulfonyl)benzamide], for which the IC50 was in the range of 20 to 100 nM.

Consider `CC(C)(C)OC(=O)N1CCCC(C(=O)Nc2cnc(-n3cccn3)nc2O)C1` (stereo not drawn) [Compound 3-49, tert-butyl 3-(4-hydroxy-2-(1H-pyrazol-1-yl)pyrimidin-5-ylcarbamoyl)piperidine-1-carboxylate], for which the IC50 lay in the range of 100 to 10000 nM.

As for `O=C(Nc1cnc(-n2cccn2)nc1O)Oc1ccc2ccccc2c1` [Compound 5-18, naphthalen-2-yl 4-hydroxy-2-(1H-pyrazol-1-yl)pyrimidin-5-ylcarbamate], the IC50 lay within 100 to 10000 nM.

`O=C(Cc1ccc2c(c1)OCO2)Nc1cnc(-n2cccn2)nc1O` [Compound 3-40, 2-(benzo[d][1,3]dioxol-5-yl)-N-(4-hydroxy-2-(1H-pyrazol-1-yl)pyrimidin-5-yl)acetamide] returned an IC50 of 0.5 to 20 nM.

As to `Cc1ccc(S(=O)(=O)NC(=O)c2cnc(-c3cccnn3)nc2O)cc1` [Compound 13-1, 4-hydroxy-2-(pyridazin-3-yl)-N-tosylpyrimidine-5-carboxamide], the concentration for half-maximal inhibition (IC50) was in the range of 100 to 10000 nM.

The compound `O=C(Nc1cnc(-n2cccn2)nc1O)C1CCc2ccccc21` (stereo not drawn) [Compound 3-53, 2,3-dihydro-N-(4-hydroxy-2-(1H-pyrazol-1-yl)pyrimidin-5-yl)-1H-indene-1-carboxamide] returned an IC50 of 0.5 to 20 nM.

Turning to `O=C(Nc1cnc(-n2cccn2)nc1O)Oc1ccc(-c2ccccc2)cc1` [Compound 5-17, biphenyl-4-yl 4-hydroxy-2-(1H-pyrazol-1-yl)pyrimidin-5-ylcarbamate], the IC50 fell in the range of 100 to 10000 nM.

In turn, `CC(C)N(C(=O)Nc1cnc(-n2cccn2)nc1O)c1ccccc1` [Compound 5-8, 3-(4-hydroxy-2-(1H-pyrazol-1-yl)pyrimidin-5-yl)-1-isopropyl-1-phenylurea] had an IC50 of 20 to 100 nM.

In turn, `CC(NC(=O)Nc1cnc(-n2cccn2)nc1O)c1ccccc1` (stereo not drawn) [Compound 5-3, 1-(4-hydroxy-2-(1H-pyrazol-1-yl)pyrimidin-5-yl)-3-(1-phenylethyl)urea] gave an IC50 of 0.5 to 20 nM.

As to `O=C(CCc1ccccc1)Nc1cnc(-n2cccn2)nc1O` [Compound 3-44, N-(4-hydroxy-2-(1H-pyrazol-1-yl)pyrimidin-5-yl)-3-phenylpropanamide], the IC50 was in the range of 20 to 100 nM.

`CC(C)NC(=O)Cc1cnc(-n2cccn2)nc1O` [Compound 12-3, 2-(4-hydroxy-2-(1H-pyrazol-1-yl)pyrimidin-5-yl)-N-isopropylacetamide] gave an IC50 of 100 to 10000 nM.

Consider `O=C(Nc1cnc(-n2cccn2)nc1O)NC1CCCCC1` [Compound 5-4, 1-cyclohexyl-3-(4-hydroxy-2-(1H-pyrazol-1-yl)pyrimidin-5-yl)urea], for which the half-maximal inhibitory concentration (IC50) is 20 to 100 nM.

Take `CC(NC(=S)Nc1cnc(-n2cccn2)nc1O)c1ccccc1` (stereo not drawn) [Compound 7-1, 1-(4-hydroxy-2-(1H-pyrazol-1-yl)pyrimidin-5-yl)-3-(1-phenylethyl)thiourea]: the IC50 is 0.5 to 20 nM.

One may read the IC50 as the concentration needed to halve the response being measured.
